Measurements reported in patent US20070264661A1, “METHOD FOR RAPID IDENTIFICATION OF MOLECULES WITH FUNCTIONAL ACTIVITY TOWARDS BIOMOLECULAR TARGETS” (Isis Pharmaceuticals, Inc., priority 2003, published 2007).

Columns and labels:
[1] = system: E. coli 16S ribosomal A-site (16S) 27-mer synthetic RNA construct; experiment: ESI-FTICR MS screening for noncovalent binding to the 16S RNA construct
Method: (§1) Samples were brought to 0.1% heptafluorobutyric acid (HFBA) by the addition of 1% HFBA. A Gilson HPLC system consisting of four 306 pumps and a Gilson 215 liquid handler was used to perform the separations. Sample injection volume was 3 mL. Separation was carried out using a 250×10 mm Phenomenex Aqua C18 column, with a 50×10 mm guard column. Components were eluted using 0.1% HFBA and a gradient of 0 to 40% Acetonitrile (ACN) at a flow rate of 3 mL/min. over 45 minutes. 1 mL fractions were collected every 20 seconds and were assayed without further preparation.
(§2) RNA constructs 16S and 16Sc (FIG. 1A) were obtained from Dharmacon Research, Boulder, Colo. The 16Sc construct contains an 18-atom hexaethylene glycol chain attached to the 5′ terminus of the oligonucleotide as supplied by the manufacturer. The addition of this chain results in a net addition of C12H24O9 P (monoisotopic mass calc 344.1236) to the 16Sc oligonucleotide sequence shown in FIG. 1. The RNA was deprotected according to the manufacturer's directions and ethanol precipitated twice from 1 M ammonium acetate. Paromomycin (MW=615.2963 Da), was obtained from Sigma (St. Louis, Mo.) and ICN (Costa Mesa, Calif.).
The construct shown on the left in FIG. 1A (16S) is the 27-mer synthetic RNA containing the E. coli 16S ribosomal A-site (Purohit, P.; Stern, S. Nature 1994, 370, 659-662). Two positions in the E. coli 16S RNA are noted numerically as 1408 and 1492, referring to the location of these residues in the intact 16S rRNA. These positions have been previously shown to be critical for aminoglycoside recognition and binding (Griffey, R. H.; Hofstadler, S. A.; Sannes-Lowery, K. A.; Ecker, D. J.; Crooke, S. T. Proc. Natl. Acad. Sci. U. S. A. 1999, 96, 10129-10133; Fourmy, D.; Recht, M. I.; Blanchard, S. C.; Puglisi, J. D. Science (Washington, D.C.) 1996, 274, 1367-1371).
Mass spectrometry was performed on a modified Bruker Daltonics (Billerica, Mass.) Apex II 70e electrospray ionization Fourier transform ion cyclotron resonance mass spectrometer equipped with an actively shielded 7 tesla superconducting magnet. Experiments were performed with the source at room temperature, the skimmer potential was held at 0 volts, the capillary exit potential was −126 volts, and other experimental parameters were as described in detail elsewhere (Sannes-Lowery, K. A.; Drader, J. J.; Griffey, R. H.; Hofstadler, S. A. TrAC, Trends Anal. Chem. 2000, 19, 481-491). Binding reactions were comprised of 15 μl of a solution containing 2.5 μM 16S and 16Sc in 100 mM NH4OAc and 33% isopropyl alcohol and 2 μl of the LC fraction in a 96-well microtiter plate. […] The plates were vortexed briefly, and then incubated for 60 minutes at room temperature prior to analysis. Sample aliquots were injected directly from 96-well microtiter plates using a CTC HTS PAL autosampler (LEAP Technologies, Carrboro, N.C.).
The presence of both a specific (16S) and non-specific (16Sc) RNA construct enables the simultaneous determination of binding specificity between target and ligand. In the absence of ligand, the initial peak intensity ratio of 16Sc/16S was determined to be 0.3 as shown in the control spectrum shown in FIG. 1B. The peak intensity ration of 16Sc/16S should remain constant in the absence of ligand binding activity. If a ligand specifically binds the 16S RNA target, the peak intensity ratio of 16Sc/16S will […], while a ligand that binds non-specifically to both targets will not cause a significant change in the peak intensity ratio of 16Sc/16S. Thus, monitoring the 16Sc/16S peak intensity ratio is a convenient metric for characterizing binding specificity.

[2] = system: 16S control construct (16Sc); experiment: ESI-FTICR MS screening for noncovalent binding to the 16Sc control RNA construct; set-up: species or system E. coli
Method: as §1
as §2, with “Paromomycin (MW=615.2963 Da), was obtained from Sigma (St. Louis, Mo.) and ICN (Costa Mesa, Calif.).” left out
The presence of both a specific (16S) and non-specific (16Sc) RNA construct enables the simultaneous determination of binding specificity between target and ligand. In the absence of ligand, the initial peak intensity ratio of 16Sc/16S was determined to be 0.3 as shown in the control spectrum shown in FIG. 1B. […]

For NC[C@@H]1O[C@H](O[C@H]2[C@@H](O)[C@H](O[C@@H]3[C@@H](O)[C@H](N)C[C@H](N)[C@H]3O[C@H]3O[C@H](CO)[C@@H](O)[C@H](O)[C@H]3N)O[C@@H]2CO)[C@H](N)[C@@H](O)[C@@H]1O [paromomycin, Paromomycin], which “binding specificity 16S vs 16Sc (result in words)” value ([1]; 2.5 μM 16S and 16Sc, 100 mM NH4OAc, 33% isopropyl alcohol) is on record?
The value was “binding specifically to 16S RNA”.

And the “specificity for the 16S RNA target relative to the new molecule (59-fold vs. 5-fold)” value ([1]; fraction 146)?
Its value is “approximately 11 fold”.

And the “abundance of the specific complex of 16S+paromomycin compared to 16S” value ([1]; fraction 146 (~54.7 minutes) of S. rimosus sp. paromomycinus broth, 5- charge state, FIG. 4)?
Its value is 770%.

What about the “specificity of binding to the 16S RNA target over the 16Sc RNA construct” value ([1]; fraction 146, ratio of complex abundances 16S vs 16Sc) of the same compound?
The value was “approximately 59 fold”.

And the “peak intensity ratio of 16Sc/16S RNA” value ([1]; fraction #131 (~49.5 minutes), baseline ratio without ligand 0.3)?
The value was 0.79.

What about the “number of paromomycin molecules binding to 16S and 16Sc RNA” value ([1]; peak of the paromomycin elution (e.g. fraction 138), data not shown) of the same compound?
Its value is “one to four”.

And the “abundance of the non-specific complex of 16Sc+paromomycin (relative to 16Sc)” value ([2]; fraction 146 (~54.7 minutes), FIG. 4)?
Its value is 13%.

What about the “binding to the 16Sc RNA (result in words)” value ([2]; fraction #131, peak would be expected at m/z 1982.11) of the same compound?
The value was “does not indicate a peak corresponding to paromomycin binding to the 16Sc RNA”.
